This note sets out measurements from patent US11166942B2 (PRAXIS BIOTECH LLC, priority 2018, dated 2021).

pIC50: −log10 of the molar value. Read-outs that look alike come from different tables or passages of the source.

For one assay, the system named is ATF4. In words: ATF4 expression inhibition assay (ATF4 5'UTR luciferase reporter, Tg-stressed HEK293T cells). The note with it: for inhibition at 0.1 µM: read-out: % ATF4 inhibition at 100 nM; for inhibition at 1 µM: read-out: % ATF4 inhibition at 1 μM; for pIC50: read-out: ATF4 inhbition IC50. It is filed as cell-based, human. Here is the method:
The ATF4 reporter was prepared by fusing the human full length 5′UTR of ATF4 (NCBI Accession No. BC022088.2) upstream of the firefly luciferase coding sequence lacking the initiator methionine. The fused sequence was cloned into pLenti-EF1a-C-Myc-DDK-IRES-Puro cloning vector (Origen #PS100085) using standard methods. Virus production was carried out by using Lenti-X™ Packaging Single Shots Protocol (Clonetech #631276). Viral particles were used to transduce HEK293T cells (ATCC #CRL-3216, ATCC Manassas, Va.), which were subsequently selected with puromycin to generate stable cell line. Cells were maintained at 37° C. and 5% CO2 in DMEM-F12 (Hyclone #SH30023.02) supplemented with 10% heat-inactivated fetal bovine serum (Gibco #16000-044), 2 mM L-glutamine (Gibco #25030-081), 100 U/ml penicillin, and 100 μg/ml streptomycin (Gibco #15140-122).
HEK293T cells carrying the ATF4 luciferase reporter were plated on 96-well plates (Nunc) at 10,000 cells per well. Cells were treated two days after seeding with 100 nM thapsigargin (Tg) (Sigma-Aldrich #T9033) in the presence of 100 nM or 1 μM. For the assessment of the half-maximal inhibitory concentration (IC50) for selected compounds, dose-response assays were performed. Compounds were serially diluted using DMSO ranging from 0.1 nM to 1 μM. Cells without treatment or cells treated with Tg alone were used as controls. Assay plates containing cells were incubated for 3 hours at 37° C.
Luciferase reactions were performed using Luciferase Assay System (Promega #E1501) as specified by the manufacturer. Luminescence was read with an integration time of 1 s and a gain of 110 using a Cytation-5 multi-mode microplate reader (BioTek). Relative luminescence units were normalized to Tg treatment (0% inhibition) and untreated cells (100% inhibition) and the percentage of ATF4 inhibition was calculated.
Percentages of ATF4 inhibition after induction with Tg in the presence of 100 nM or 1 μM of certain test compounds are shown in Table 2. Also shown in Table 2 is the calculated IC50 for certain test compounds. […] Accordingly, inhibition of ATF4 expression as a result of the test compound indicates suppression of the ISR pathway.
(In general: A reporter such as luciferase makes a cellular process visible.)

In assay [1] the test system is Chinese hamster ovary (CHO) cells. In words: Protein translation assay (puromycin labelling, CHO cells). It is filed as cell-based. Particulars: media alone = 100%; for activity at 1 µM: Cricetulus griseus, CHO. How it is done:
Chinese hamster ovary (CHO) cells were maintained at 37° C. and 5% CO2 in Dulbecco's Modified Eagle's Media (DMEM) supplemented with 10% fetal bovine serum, 2 mM L-glutamine, 100 U/ml penicillin, and 100 μg/ml streptomycin. After reaching 80% of confluence, cells were detached and seeded on 6 well plates in complete media, allowed to recover overnight and treated for 2 hours with 1 μM of the test compound (to assess protein synthesis levels in unstressed condition), or for 1 hour with 100 nM or 1 μM of the test compound and then co-treated with 300 nM Tg and 100 nM or 1 μM of the test compound (to assess the recovery of protein synthesis in a stressed condition). Cells treated with Tg alone were used as controls.
After the 2 hours treatments, media were replaced by adding 10 μg/ml puromycin (Sigma Aldrich #P8833) in complete media for 30 min. Media were removed and cells were lysed with SDS-PAGE lysis buffer. Lysates were transferred to 1.5 ml tubes and sonicated for 3 min and total protein amount were quantified using BCA Protein Assay Kit (Pierce). Equal amount of protein (30 μg) was loaded on SDS-PAGE gels. Proteins were transferred onto 0.2 μm PVDF membranes (BioRad) and probed with primary antibodies diluted in Tris-buffered saline supplemented with 0.1% Tween 20 (Merck #S6996184 505) and 3% bovine serum albumin (Rockland #BSA-50).
Puromycin (12D10) (Merck #MABE343) and β-actin (Sigma Aldrich #A5441) antibodies were used as primary antibody. A HRP-conjugated secondary antibody (Rockland) was employed to detect immune-reactive bands using enhanced chemiluminescence (ECL Western Blotting Substrate, Pierce). Quantification of protein bands was done by densitometry using ImageJ software.
Percent increase of protein synthesis in unstressed cells (without Tg treatment) in the presence of media alone or certain test compounds is shown in Table 3 The percentage levels were normalized to the media alone condition, which correspond to 100% protein synthesis.
Percent recovery of protein synthesis in stressed cells (with Tg treatment) due to the test compounds at 100 nM or 1 μM is also shown in Table 3. The levels were normalized to the media alone and to Tg alone conditions, which correspond to 100% and 0% respectively.

Setting [2] is: 2 h, unstressed CHO cells, 1 μM, 2 hours, read-out: % Protein synthesis in unstressed cells (1 μM test compound).
[3] abbreviates: CHO cells stressed with 300 nM Tg, 1 μM compound, Tg alone = 0%, read-out: % Recovery of protein expression (1 μM test compound).
[4] abbreviates: 100 nM thapsigargin, 3 hours, HEK293T ATF4 luciferase reporter.
[5] abbreviates: Homo sapiens, HEK-293T, 3 h, 100 nM test compound, 100 nM thapsigargin, 3 hours, HEK293T ATF4 luciferase reporter.
Setting [6] is: Homo sapiens, HEK-293T, 3 h, 1 μM test compound, 100 nM thapsigargin, 3 hours, HEK293T ATF4 luciferase reporter.
The mark [7] stands for this setting: unstressed CHO cells, 1 μM, 2 hours.
Setting [8] is: 100 nM test compound, 100 nM thapsigargin, 3 hours, HEK293T ATF4 luciferase reporter.
Setting [9] is: 1 μM test compound, 100 nM thapsigargin, 3 hours, HEK293T ATF4 luciferase reporter.
[10] abbreviates: Homo sapiens, HEK-293T, 3 h, 100 nM thapsigargin, 3 hours, HEK293T ATF4 luciferase reporter.

Consider `O=C(NN1CCC(NCC(O)COc2ccc(Cl)c(F)c2)CC1)c1cc2cc(Cl)ccc2o1` (stereo not drawn) [Compound 21, 5-chloro-N-(4-((3-(4-chloro-3-fluorophenoxy)-2-hydroxypropyl)amino)piperidin-1-yl)benzofuran-2-carboxamide], for which, in the assay with ATF4 (Homo sapiens, HEK-293T, 3 h), the inhibition (commonly the percentage by which the read-out fell short of the control) at 0.1 µM amounted to 68.6%; the inhibition at 1 µM was determined as 86.9%; the pIC50 (in general, the negative decadic logarithm of the IC50, by convention in mol/L) was 7.21. The activity at 1 µM in assay [1] (setting [2]) came to 129%. For the same compound, in assay [1] (setting [3]), the activity at 1 µM worked out at 236%.

Consider `O=C(COc1ccc(Cl)c(F)c1)NN1CCC(NCCOc2ccc(Cl)c(F)c2)CC1` [Compound 22, 2-(4-chloro-3-fluorophenoxy)-N-(4-((2-(4-chloro-3-fluorophenoxy)ethyl)amino)piperidin-1-yl)acetamide], for which, in the assay on ATF4 (Homo sapiens, HEK-293T, 3 h), the inhibition at 0.1 µM was determined as 87.5%, the inhibition at 1 µM worked out at 92.8% and the pIC50 is 7.99. Moreover, the activity at 1 µM in assay [1] (setting [2]) amounted to 94.8%. The activity at 1 µM in assay [1] (setting [3]) came out at 105%.

`O=C(NN1CCC(NCCOc2ccc(Cl)c(F)c2)CC1)c1ccc2cc(Cl)ccc2n1` [Compound 23, 6-chloro-N-(4-((2-(4-chloro-3-fluorophenoxy)ethyl)amino)piperidin-1-yl)quinoline-2-carboxamide]: in the assay with ATF4 (Homo sapiens, HEK-293T, 3 h), the inhibition at 0.1 µM turned out to be 67.2%, the inhibition at 1 µM was 89.3% and the pIC50 was 7.25. For the same compound, in assay [1] (setting [2]), the activity at 1 µM came to 178%. For the same compound, the activity at 1 µM in assay [1] (setting [3]) worked out at 249%.

In the case of `O=C(NN1CCC(NCCOc2ccc(Cl)c(F)c2)CC1)c1cc2cc(Cl)ccc2o1` [Compound 24, 5-chloro-N-(4-((2-(4-chloro-3-fluorophenoxy)ethyl)amino)piperidin-1-yl)benzofuran-2-carboxamide], in the assay with ATF4 (Homo sapiens, HEK-293T, 3 h), the inhibition at 0.1 µM was 88%, the inhibition at 1 µM is 99.5% and the pIC50 is 7.49. Besides, in assay [1] (setting [2]), the activity at 1 µM was 144%. Further, in assay [1] (setting [3]), the activity at 1 µM was determined as 183%.

Turning to `O=C(COc1ccc(Cl)c(F)c1)NN1CCN(C(=O)COc2ccc(Cl)c(F)c2)CC1` [Compound 30, 2-(4-chloro-3-fluorophenoxy)-N-(4-(2-(4-chloro-3-fluorophenoxy)acetyl)piperazin-1-yl)acetamide], in the assay on ATF4 (Homo sapiens, HEK-293T, 3 h), the inhibition at 0.1 µM came to 29.5%, the inhibition at 1 µM was found to be 97.1% and the pIC50 was 6.73. Moreover, the activity at 1 µM in assay [1] (setting [2]) was 49.3%. Further, the activity at 1 µM in assay [1] (setting [3]) amounted to 31.7%.

Regarding `O=C(COc1ccc(Cl)c(F)c1)NC1CCN(NC(=O)C2CNc3cc(Cl)ccc3O2)CC1` (stereo not drawn) [Compound 31, 6-chloro-N-(4-(2-(4-chloro-3-fluorophenoxy)acetamido)piperidin-1-yl)-3,4-dihydro-2H-benzo[b][1,4]oxazine-2-carboxamide], the pIC50 in the assay on ATF4 (setting [4]) was 8.38. In the assay on ATF4 (setting [5]), the inhibition at 0.1 µM amounted to 94.8%. Further, in the assay with ATF4 (setting [6]), the inhibition at 1 µM was 92.7%. In addition, the “% Protein synthesis in unstressed cells (1 μM test compound)” value (“% Protein synthesis in unstressed cells” for short) in assay [1] (setting [7]) was found to be 155.4%.

Regarding `O=C(COc1ccc(Cl)c(F)c1)NN1CCC(NC(=O)C2CNc3cc(Cl)ccc3O2)CC1` (stereo not drawn) [Compound 32], the “% ATF4 inhibition at 100 nM” value in the assay on ATF4 (setting [8]) is on record as 85.7%. For the same compound, in the assay with ATF4 (setting [4]), the pIC50 is 7.92. The “% ATF4 inhibition at 1 μM” value in the assay on ATF4 (setting [9]) is listed as 92.4%. Besides, in assay [1] (CHO cells stressed with 300 nM Tg, 1 μM compound, Tg alone = 0%), the “% Recovery of protein expression (1 μM test compound)” value is recorded as 74.8%. For the same compound, the “% Protein synthesis in unstressed cells” value in assay [1] (setting [7]) is reported as 115.7%.

With `O=C(NN1CCN(CCCOc2ccc(Cl)c(F)c2)CC1)C1CNc2cc(Cl)ccc2O1` (stereo not drawn) [Compound 44, 6-chloro-N-(4-(3-(4-chloro-3-fluorophenoxy)propyl)piperazin-1-yl)-3,4-dihydro-2H-benzo[b][1,4]oxazine-2-carboxamide], in the assay with ATF4 (Homo sapiens, HEK-293T, 3 h), the inhibition at 0.1 µM turned out to be 51.5%, the inhibition at 1 µM amounted to 82% and the pIC50 is 6.82. For the same compound, in assay [1] (setting [2]), the activity at 1 µM stood at 146%. Also, in assay [1] (setting [3]), the activity at 1 µM turned out to be 120%.

Consider `O=C(COc1ccc(Cl)cc1)NC1CCN(NC(=O)COc2ccc(Cl)cc2)CC1` [Compound 45, N,N′-(piperidine-1,4-diyl)bis(2-(4-chlorophenoxy)acetamide)], for which, in the assay on ATF4 (Homo sapiens, HEK-293T, 3 h), the inhibition at 0.1 µM is 92.7%, the inhibition at 1 µM came to 92.4% and the pIC50 is 8.59. Also, in assay [1] (setting [2]), the activity at 1 µM is 114%. In addition, the activity at 1 µM in assay [1] (setting [3]) is 82.3%.

Consider `O=C(COc1ccc(Cl)c(F)c1)NC1CCN(NC(=O)[C@H]2CNc3cc(Cl)ccc3O2)CC1` [Compound 46, (R)-6-chloro-N-(4-(2-(4-chloro-3-fluorophenoxy)acetamido)piperidin-1-yl)-3,4-dihydro-2H-benzo[b][1,4]oxazine-2-carboxamide], for which the inhibition at 0.1 µM in the assay with ATF4 (setting [5]) was 100%. Also, the pIC50 with ATF4 (setting [10]) is 8.44. In the assay with ATF4 (setting [6]), the inhibition at 1 µM was 99.3%. For the same compound, the activity at 1 µM worked out at 114% in assay [1] (setting [2]) and 63.3% in assay [1] (setting [3]).

For the compound `O=C(COc1ccc(Cl)c(F)c1)NC1CCN(NC(=O)[C@@H]2CNc3cc(Cl)ccc3O2)CC1` [Compound 47, (S)-6-chloro-N-(4-(2-(4-chloro-3-fluorophenoxy)acetamido)piperidin-1-yl)-3,4-dihydro-2H-benzo[b][1,4]oxazine-2-carboxamide], the “% ATF4 inhibition at 100 nM” value with ATF4 (setting [8]) is 98.2%. Also, the pIC50 in the assay on ATF4 (setting [4]) was 8.70. The “% ATF4 inhibition at 1 μM” value in the assay with ATF4 (setting [9]) is 99.0%. In assay [1] (setting [7]), the “% Protein synthesis in unstressed cells” value is 89.4%.

Regarding `O=C(NN1CCN(C[C@@H](O)COc2ccc(Cl)c(F)c2)CC1)c1cc2cc(Cl)ccc2o1` [Compound 48, (R)-5-chloro-N-(4-(3-(4-chloro-3-fluorophenoxy)-2-hydroxypropyl)piperazin-1-yl)benzofuran-2-carboxamide], the inhibition at 0.1 µM in the assay with ATF4 (setting [5]) was 96.5%. For the same compound, the pIC50 in the assay on ATF4 (setting [10]) was 8.47. Besides, the inhibition at 1 µM in the assay on ATF4 (setting [6]) was determined as 97.4%. Besides, the activity at 1 µM stood at 85.3% in assay [1] (setting [2]) and 76.2% in assay [1] (setting [3]).

As for `O=C(NN1CCN(C[C@H](O)COc2ccc(Cl)c(F)c2)CC1)c1cc2cc(Cl)ccc2o1` [Compound 49, (S)-5-chloro-N-(4-(3-(4-chloro-3-fluorophenoxy)-2-hydroxypropyl)piperazin-1-yl)benzofuran-2-carboxamide], the inhibition at 0.1 µM with ATF4 (setting [5]) was 55.4%. In addition, in the assay on ATF4 (setting [10]), the pIC50 was 7.16. Moreover, the inhibition at 1 µM with ATF4 (setting [6]) is 100%. In addition, the figures for the activity at 1 µM in assay [1] (setting [2]) and in assay [1] (setting [3]) were 82.3% and 70.7%, respectively.
